Drawing on patent publication EP1202959B1, “AMINOBENZOPHENONES AS INHIBITORS OF IL-1-BETA AND TNF-ALPHA” (LEO PHARMA A/S, priority 1999, dated 2001), this text covers IC50 for four compounds.

Molecules are shown by their SMILES.

What all share (format): cell-based
One experiment concerns IL-1β. The experiment is described as follows: Inhibition of IL-1β secretion in LPS stimulated peripheral blood mononuclear cells (ELISA). The following applies: PBMC; LPS stimulated human peripheral blood mononuclear cells; compounds added 30 minutes before LPS; incubated 18 hours; read-out: The median inhibition concentration (IC50, nM) of IL-1β. How it is done:
(§1) To study the effect of the compound of the present invention in vitro the inhibition of the IL-1β and TNF-α secretion was measured using the following procedure:
(§2) Cytokine production was measured in the media from lipopolysaccharide (LPS) stimulated peripheral blood mononuclear cells. The mononuclear cells were isolated from human peripheral blood by Lymphoprep® (Nycomed, Norway) fractionation and suspended in RPMI 1640 (growth medium) with foetal calv serum (FCS, 2%), at a concentration of 5 x 10^5 cells/ml. The cells were incubated in 24-well tissue culture plates in 1 ml aliquots. Test compounds were dissolved in dimethylsulfoxide (DMSO, 10 mM) and were diluted with the medium. Compounds were added to the cells for 30 minutes, then LPS ([…] final concentration) was added. The plates were incubated for 18 hours, and the concentration of IL-1β and TNF-α in the medium was determined by enzyme-linked immunosorbent assays. The median inhibitory concentrations (IC50) of the compounds were calculated.

The test system of the next experiment is TNF-α. The experiment is described as follows: Inhibition of TNF-α secretion in LPS stimulated peripheral blood mononuclear cells (ELISA). As to conditions: PBMC; LPS stimulated human peripheral blood mononuclear cells; compounds added 30 minutes before LPS; incubated 18 hours; read-out: The median inhibition concentration (IC50, nM) of TNF-α. As to the method: as §1, §2

Experiment [1] deals with Human polymorphonuclear (PMN) granulocytes. The experiment is described as follows: Inhibition of PMN superoxide secretion (superoxide dismutase inhibitable reduction of ferricytochrome C). The following applies: human PMN granulocytes primed with TNF-α (3 ng/ml), stimulated with fMLP (10^-7 M); read-out: The median inhibition concentration (IC50, nM) of PMN-superoxide. As to the method:
The compounds of the present invention also show similar activities in the ability to inhibit PMN (polymorphonuclear) superoxide secretion which is also indicative of potentially useful anti-inflammatory drugs. The compounds were tested using the following procedure: Human polymorphonuclear (PMN) granulocytes were isolated from human blood by dextran sedimentation, Lymphoprep® fractionation and hypotonic lysis of contaminating erythrocytes. Superoxide anion generation was measured as the superoxide dismutase inhibitable reduction of ferricytochrome C (Madhu, S.B. et al, Inflammation, 16, 241, (1992)). The cells were suspended in Hanks' balanced salt solution, and incubated for 10 minutes at 37°C with test compounds. The cells were primed by the addition of TNF-α (3 ng/ml final concentration) for 10 minutes, and then ferricytochrome C, (final concentration 750µg/ml), bovine serum albumin (BSA, final concentration 1 mg/ml) and formyl-methionyl-leucyl-phenylalanine (fMLP, final concentration 10^-7 M) were added for 3 minutes. The cells were chilled on ice, and were spun down. The optical densities in the cell-free supernatant was measured in a spectrophotometer. The median inhibitory concentration (IC50) of the compounds was calculated.

As to `Cc1ccccc1C(=O)c1ccc(Nc2ccccc2NC(=O)Oc2ccccc2)cc1Cl` [Compound 105, Phenyl N-[2-[3-chloro-4-(2-methylbenzoyl)-phenylamino]phenyl]carbamate], the IC50 with IL-1β turned out to be 50 nM; with TNF-α it was 10 nM; in experiment [1], 100 nM.
In the same order, the values of `CC(=O)OCOC(=O)Nc1ccccc1Nc1ccc(C(=O)c2ccccc2C)c(Cl)c1` [Compound 109, 1-Acetoxymethyl N-[2-[3-chloro-4-(2-methylbenzoyl)-phenylamino]phenyl]carbamate] are 32 nM, 6.3 nM and 40 nM.
In the same order, the values of `Cc1ccccc1C(=O)c1ccc(Nc2ccccc2N)cc1Cl` [ref. a), 4-(2-Aminophenylamino)-2-chloro-2'-methylbenzophenone] are 13 nM, 7.1 nM and 5 nM.
In the same order, the values of `CCOC(=O)Nc1ccccc1Nc1ccc(C(=O)c2ccccc2C)c(Cl)c1` [ref. b), Ethyl N-[2-[3-chloro-4-(2-methylbenzoyl)-phenylamino]phenyl]carbamate] are 32 nM, 5 nM and 5 nM.
